Key:
[1] = target: T1, Sfβgly (GH1 β-glucosidase) (Spodoptera frugiperda, UniProt O61594); test: hydrolysis initial rates by purified enzyme (glucose detection); type: biochemical
T1 construct: purified recombinant Sfβgly

[2] = target: T1, Sfβgly (GH1 β-glucosidase); test: steady-state inhibition kinetics (Lineweaver-Burk) with NPβglc as substrate; also with cellobiose (Ki […]); type: biochemical

T1 sequence (O61594 21-509): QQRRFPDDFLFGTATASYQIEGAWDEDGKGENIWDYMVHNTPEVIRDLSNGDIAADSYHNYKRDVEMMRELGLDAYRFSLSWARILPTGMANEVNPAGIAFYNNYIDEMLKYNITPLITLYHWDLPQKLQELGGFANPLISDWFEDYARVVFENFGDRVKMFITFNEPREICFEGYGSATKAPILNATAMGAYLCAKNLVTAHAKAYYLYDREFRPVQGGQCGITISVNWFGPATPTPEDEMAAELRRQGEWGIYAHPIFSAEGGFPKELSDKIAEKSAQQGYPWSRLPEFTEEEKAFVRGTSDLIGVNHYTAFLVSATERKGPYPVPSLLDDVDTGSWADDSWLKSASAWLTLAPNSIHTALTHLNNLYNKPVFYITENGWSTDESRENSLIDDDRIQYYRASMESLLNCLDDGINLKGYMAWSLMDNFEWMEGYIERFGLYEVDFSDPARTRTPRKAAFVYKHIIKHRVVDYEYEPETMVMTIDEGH

OC[C@H]1O[C@@H](O[C@H]2[C@H](O)[C@@H](O)C(O)O[C@@H]2CO)[C@H](O)[C@@H](O)[C@@H]1O (some centres unmarked) [C2, cellobiose]
hydrolysis initial rates by purified enzyme (glucose detection) [1]: The same experiment was repeated using C2, a natural substrate of Sfβgly, and two independent enzyme samples.

NC(CO)(CO)CO [Tris, 2-amino-2-(hydroxymethyl)-1,3-propanediol]
Ki [2]: 12 ± 2 mM

Source: publication PMC11936226, “Tris inhibits a GH1 β-glucosidase by a linear mixed inhibition mechanism” (PLOS One, 2025)
